According to article PMC6934184, “Selective DNA-PKcs inhibition extends the therapeutic index of localized radiotherapy and chemotherapy” (The Journal of Clinical Investigation, 2019):

Target: T1, ROS1 (Homo sapiens, UniProt P08922)
T1 construct: purchased Thermo Fisher Scientific (Life Technologies) SelectScreen
Assay: SelectScreen Z'LYTE
Format: biochemical
Outline: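 NU5455 was profiled across the SelectScreen Broad panel of kinase activity and binding assays. Z'LYTE reactions such as CSF1R ran at apparent Km ATP, while the Adapta CAMK1 assay used ATP listed as 10. Values are given as percent.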

T1 sequence (P08922 28-2347): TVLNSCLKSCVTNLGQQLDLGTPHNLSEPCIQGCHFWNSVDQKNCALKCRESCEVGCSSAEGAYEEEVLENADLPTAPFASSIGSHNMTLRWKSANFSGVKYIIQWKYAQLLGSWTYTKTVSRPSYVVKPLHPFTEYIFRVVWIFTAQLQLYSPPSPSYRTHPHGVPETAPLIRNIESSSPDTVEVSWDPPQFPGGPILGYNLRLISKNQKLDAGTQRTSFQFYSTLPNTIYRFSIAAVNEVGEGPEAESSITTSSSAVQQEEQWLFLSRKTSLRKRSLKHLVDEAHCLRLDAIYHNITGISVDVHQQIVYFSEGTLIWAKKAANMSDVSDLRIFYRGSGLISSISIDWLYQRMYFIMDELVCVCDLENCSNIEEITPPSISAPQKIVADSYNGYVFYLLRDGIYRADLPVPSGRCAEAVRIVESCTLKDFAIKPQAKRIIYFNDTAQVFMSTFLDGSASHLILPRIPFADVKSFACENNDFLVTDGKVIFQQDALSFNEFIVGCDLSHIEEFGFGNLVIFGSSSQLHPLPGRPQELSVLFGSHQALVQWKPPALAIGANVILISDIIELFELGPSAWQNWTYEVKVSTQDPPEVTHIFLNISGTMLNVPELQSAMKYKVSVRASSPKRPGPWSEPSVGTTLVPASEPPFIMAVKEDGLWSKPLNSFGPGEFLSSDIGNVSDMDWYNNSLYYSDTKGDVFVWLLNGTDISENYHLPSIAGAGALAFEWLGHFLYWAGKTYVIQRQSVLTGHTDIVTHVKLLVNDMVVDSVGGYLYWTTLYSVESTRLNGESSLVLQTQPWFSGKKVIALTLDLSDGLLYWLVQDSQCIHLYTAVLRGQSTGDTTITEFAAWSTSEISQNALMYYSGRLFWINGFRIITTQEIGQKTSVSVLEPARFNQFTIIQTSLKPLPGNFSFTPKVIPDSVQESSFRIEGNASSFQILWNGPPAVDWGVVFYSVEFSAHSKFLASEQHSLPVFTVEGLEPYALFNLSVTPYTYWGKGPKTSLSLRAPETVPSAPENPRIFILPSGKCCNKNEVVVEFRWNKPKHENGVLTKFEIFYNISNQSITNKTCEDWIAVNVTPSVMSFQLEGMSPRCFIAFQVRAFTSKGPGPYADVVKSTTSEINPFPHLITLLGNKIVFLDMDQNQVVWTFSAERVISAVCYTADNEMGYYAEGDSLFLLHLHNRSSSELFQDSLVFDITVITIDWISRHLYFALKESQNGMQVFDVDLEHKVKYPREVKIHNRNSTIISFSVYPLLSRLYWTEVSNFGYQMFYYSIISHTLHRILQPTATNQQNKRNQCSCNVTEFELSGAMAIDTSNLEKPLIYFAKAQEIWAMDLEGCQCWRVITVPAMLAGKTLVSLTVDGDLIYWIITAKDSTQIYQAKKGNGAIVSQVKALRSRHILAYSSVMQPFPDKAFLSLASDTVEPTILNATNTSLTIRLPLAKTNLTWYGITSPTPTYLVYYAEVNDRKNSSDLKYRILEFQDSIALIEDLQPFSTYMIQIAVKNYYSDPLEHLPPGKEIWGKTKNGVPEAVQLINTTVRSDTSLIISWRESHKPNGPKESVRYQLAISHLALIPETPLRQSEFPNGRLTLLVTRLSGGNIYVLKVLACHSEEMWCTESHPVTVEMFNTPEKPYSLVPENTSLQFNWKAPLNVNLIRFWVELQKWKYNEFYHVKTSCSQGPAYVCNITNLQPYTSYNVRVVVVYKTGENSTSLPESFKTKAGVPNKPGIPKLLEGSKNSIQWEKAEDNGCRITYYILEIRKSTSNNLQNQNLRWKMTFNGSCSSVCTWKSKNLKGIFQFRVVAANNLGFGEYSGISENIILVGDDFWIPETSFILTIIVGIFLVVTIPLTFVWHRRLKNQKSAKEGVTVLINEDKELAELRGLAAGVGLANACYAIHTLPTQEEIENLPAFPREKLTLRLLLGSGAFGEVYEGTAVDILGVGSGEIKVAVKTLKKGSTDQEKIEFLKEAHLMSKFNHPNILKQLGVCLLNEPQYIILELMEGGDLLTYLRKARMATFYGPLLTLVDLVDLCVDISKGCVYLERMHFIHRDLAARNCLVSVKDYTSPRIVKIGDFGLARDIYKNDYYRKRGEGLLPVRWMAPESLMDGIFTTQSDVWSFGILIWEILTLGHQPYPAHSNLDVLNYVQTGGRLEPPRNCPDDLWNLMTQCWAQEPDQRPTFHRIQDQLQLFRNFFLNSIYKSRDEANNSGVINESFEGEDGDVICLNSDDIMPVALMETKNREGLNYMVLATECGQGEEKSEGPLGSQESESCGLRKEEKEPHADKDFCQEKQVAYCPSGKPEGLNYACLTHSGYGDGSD

## CN(C(=O)CN1CCOCC1)c1ccc2sc3c(-c4cccc5c(=O)cc(N6CC7CCC(C6)O7)oc45)cccc3c2c1 [NU5455]
  inhibition at 1 µM: 8%
